Structures can show the parent of a compound that is named as a salt.
Legend:
[1] = type: physicochemical
Procedure: A hemi-fumarate Form A (acetonitrile solvate) and hemi-fumarate Form B (non-solvated) of 3-(2,5-difluorophenyl)-7-[1,1-di(methyl-d3)ethyl-2,2,2-d3]-6-[(1-methyl-1H-1,2,4-triazol-5-yl)methoxy]-1,2,4-triazolo[4,3-b]pyridazine were prepared. A seed crystal for Form B was prepared by first combining 20.3 mg ([…]) 3-(2,5-difluorophenyl)-7-[1,1-di(methyl-d3)ethyl-2,2,2-d3]-6-[(1-methyl-1H-1,2,4-triazol-5-yl)methoxy]-1,2,4-triazolo[4,3-b]pyridazine with 1000 μL acetone. Fumaric acid/EtOH was added ([…], 1.0 eq) and the sample was continuously stirred while cycling the temperature between 40° C. and 5° C. (heating and cooling at 2° C./min. with 1 hour hold at 40° C. and 5° C.) for 48 hours. The samples were isolated at 5° C. and the suspension was equilibrated with stirring at 20° C. for 2 hours. Birefringent solids were harvested by filtration at room temperature and air-dried overnight. 3-(2,5-difluorophenyl)-7-[1,1-di(methyl-d3)ethyl-2,2,2-d3]-6-[(1-methyl-1H-1,2,4-triazol-5-yl)methoxy]-1,2,4-triazolo[4,3-b]pyridazine (5.51 mmol) was combined with acetone ([…], 16 vol). To the resulting solution (with minimal residual solids), fumaric acid (575 mg, 1.0 eq) was added, followed by seeding, e.g., with Form B (˜10 mg). […]

[2] = Gravimetric vapor sorption (GVS); type: physicochemical
Procedure: Selected physicochemical data of Form B were collected. Hemi-fumarate salt Form B was determined to be crystalline by polarized-light microscopy (PLM) and XRPD. […] (ΔH=1.7 J/g), followed immediately by a sharp endotherm at 199.6° C. […] (see FIG. 7). Proton NMR confirmed a hemi-salt with 0.5:1 CI:API ratio. […] No change in the XRPD pattern was observed post GVS.
GVS experiments were conducted on a Surface Measurement Systems DVS-Advantage. The experiments were performed at 25° C. The instrument was operated in step mode and the relative humidity was increased in 10% RH increments from 40% RH to 75% RH, then decreased from 75% RH to 5% RH, then increased a second time from 5% RH to 95% RH, then decreased from 95% RH to 5% RH. The mass equilibrium criterion was set at 0.003% change in mass over time (dm/dt). A minimum step time of 20 minutes and a maximum step time of 240 minutes were specified.

[3] = Intrinsic dissolution rate and solubility in 0.1 N HCl with 1% Tween 80 (USP <1087>); type: physicochemical; details: 0.1 N HCl with 1% Tween 80, 37° C.; for Intrinsic Dissolution Rate IDR: paddle 100 rpm, die surface 0.5 cm^2
Procedure: The intrinsic dissolution rate was determined by forming compacted pellets of approximately 75 mg of API using a compression force of 1200 pounds of force, and each pellet (die surface area: 0.5 cm^2) was immersed into a flat bottom vessel containing 500 mL of medium (aqueous 0.1 N HCl with 1% Tween 80 (polyoxyethylene (20) sorbitan monooleate)), using a Distek 2100A dissolution bath, and Distek Circulator/heater (set to 37° C.), with a paddle speed of 100 rpm. An aliquot of the sample (1 mL) was pulled from dissolution media at 15, 30, 45, 60, 75, 90, 105, and 120 minutes, filtered, and analyzed by HPLC. The slope of the dissolution profile corresponded to an intrinsic dissolution rate of hemi-fumarate salt Form B of 6.2 μg/(min·cm^2) as compared to 8.9 μg/(min·cm^2) for Compound 1 (free base). Determination of intrinsic dissolution rate (IDR) was performed for Compound 1 and seven different salts of Compound 1 according to USP <1087> in 0.1 N hydrochloric acid with 1% Tween 80 (Polyoxyethylene […] sorbitan monooleate). Compacted pellets containing approximately 75 mg API were prepared using a compression force of 1200 pounds of force, and each pellet (die surface area: 0.5 cm^2) was immersed into a flat bottom vessel containing 500 mL of medium, using a Distek 2100A dissolution bath, and Distek Circulator/heater (set to 37° C.), with a paddle speed of 100 rpm. An aliquot of the sample (1 mL) was pulled from dissolution media at 15, 30, 45, 60, 75, 90, 105, and 120 minutes, filtered, and analyzed by HPLC. HPLC for IDR and solid-state stability analyses were conducted with an Agilent 1260 Infinity system equipped with a G1311B Quad pump, […] Autosampler, G1330B auto-sampler thermostat, G1316A Thermostatted Column Compartment with a column switch valve, and […] diode array detector.

[4] = Pharmacokinetic analysis of Compound 1 and its salts after oral capsule administration (Example 4); type: in vivo, cynomolgus monkeys; details: single PO capsule, 30 mg/kg
Procedure: A pharmacokinetic analysis was performed comparing administration of Compound 1 with certain salts of Compound 1 after oral (PO) administration in 3 male cynomolgus monkeys. The subjects received a single PO oral gavage of active pharmaceutical ingredient (API) (e.g., Compound 1 fumarate, Compound 1 sulfate, Compound 1 hydrochloride, Compound 1 phosphate, Compound 1 tosylate, Compound 1 malonate, Compound 1 maleate, or Compound 1 free base) in a capsule at a dose of 30 mg/kg. Following dose administration, the animals were flushed with approximately 10 milliliters of tap water to ensure all API was administered. Animals were observed twice daily and at sample collection time-points for any abnormal clinical and behavioral signs. Body weights were taken prior to dosing and weekly thereafter until study termination. Blood samples (0.5 mL) were collected pre-dose, 15 minutes, 30 minutes, and 1, 2, 4, 6, 8, 10, 12, and 24 hours post-dose. Each blood sample was collected from the monkey's femoral, saphenous or other available vein via direct venipuncture, placed into a polypropylene tube containing K2EDTA as the anticoagulant, and gently inverted several times to mix. The blood samples were kept on wet ice until centrifugation. Blood was centrifuged within 10 minutes of collection. The samples were centrifuged at a temperature of 4° C., at 3,000 g, for 5 minutes. The resulting plasma (˜0.25 mL) was divided into two equal aliquots (125 μL each) into polypropylene tubes, designated as Set A and Set B, after centrifugation. Plasma samples designated for certain metabolites (Set A) were treated with 12.5 μL of 2 M ascorbic acid (plasma: ascorbic acid=[…], v:v) prepared beforehand by combining 0.352 g of ascorbic acid into 1 mL of sterile water in a glass vial and mixing thoroughly. […] Once plasma was prepared, the samples were snap frozen on dry ice. All plasma samples were stored frozen below −70° C. until analyzed.

[5] = Solid-state stability by HPLC and XRPD; type: physicochemical; details: 40° C./75% RH (opened) and 50° C./ambient RH (closed), after 4 weeks
Procedure: Solid-state stability of the fumarate salt of Compound 1 was assessed after storage at the following conditions for 2 and 4 weeks by HPLC and XRPD: 40° C./75% RH (opened); and 50° C./ambient RH (closed). […] Solid-state stability of Compound 1 and seven salts of Compound 1, as in Example 8, was assessed after storage at the following conditions for 2 and 4 weeks by HPLC and PXRD: 40° C./75% RH (opened); and 50° C./ambient RH (closed). HPLC for IDR and solid-state stability analyses were conducted with an Agilent 1260 Infinity system equipped with a G1311B Quad pump, […] Autosampler, G1330B auto-sampler thermostat, G1316A Thermostatted Column Compartment with a column switch valve, and […] diode array detector.

[6] = Oral non-human primate crossover PK study (Example 7); type: in vivo, cynomolgus monkeys; details: both micronized and non-micronized form; cynomolgus monkeys, single PO capsule
Source text: An objective of this study is to determine the Pharmacokinetic (PK) profile of the Test Article following a single oral administration to four male non-human primate cynomolgus monkeys with one (1) week wash out periods.
Four male animals are used for this study, and the four study animals are used for each of three dosing phases with one-week washout periods. Food is withheld overnight prior to dose administration, and food is returned four hours post-dose administration. Water is provided ad libitum by automatic watering device. Two of the four animals are previously treated with Compound 1, and the other two are Compound 1 naive. Test Article (M-3, N-3, or K-13) are provided as capsulized powders; stored at room temperature protected from light in, for example, a polyolefin bottle.

[7] = 3 male cynomolgus monkeys, plasma Compound 1

SMILES: [2H]C([2H])([2H])C(c1cc2nnc(-c3cc(F)ccc3F)n2nc1OCc1ncnn1C)(C([2H])([2H])[2H])C([2H])([2H])[2H] [Form A, 3-(2,5-difluorophenyl)-7-[1,1-di(methyl-d3)ethyl-2,2,2-d3]-6-[(1-methyl-1H-1,2,4-triazol-5-yl)methoxy]-1,2,4-triazolo[4,3-b]pyridazine]
- solid form stability at ambient conditions [1]: converted to Form B

SMILES: [2H]C([2H])([2H])C(c1cc2nnc(-c3cc(F)ccc3F)n2nc1OCc1ncnn1C)(C([2H])([2H])[2H])C([2H])([2H])[2H] [Fumarate Salt, 3-(2,5-difluorophenyl)-7-[1,1-di(methyl-d3)ethyl-2,2,2-d3]-6-[(1-methyl-1H-1,2,4-triazol-5-yl)methoxy]-1,2,4-triazolo[4,3-b]pyridazine]
- XRPD pattern post GVS ([2]; after GVS): No change
- moisture uptake (GVS) ([2]; between 5-95% RH, 25° C.): < 0.1 % wt
- Solubility, time point 15 min ([3]; 500 mL, pellet about 75 mg, 15 min): 0.342 µg/mL
- Solubility, time point 30 min ([3]; 500 mL, pellet about 75 mg, 30 min): 0.404 µg/mL
- Solubility, time point 45 min ([3]; 500 mL, pellet about 75 mg, 45 min): 0.46 µg/mL
- Solubility, time point 60 min ([3]; 500 mL, pellet about 75 mg, 60 min): 0.576 µg/mL
- Solubility, time point 75 min ([3]; 500 mL, pellet about 75 mg, 75 min): 0.684 µg/mL
- Solubility, time point 90 min ([3]; 500 mL, pellet about 75 mg, 90 min): 0.79 µg/mL
- Solubility, time point 105 min ([3]; 500 mL, pellet about 75 mg, 105 min): 0.87 µg/mL
- Solubility, time point 120 min ([3]; 500 mL, pellet about 75 mg, 120 min): 0.993 µg/mL
- Intrinsic Dissolution Rate IDR [3]: 6.2 μg/(min · cm^2)
- Intrinsic Dissolution Rate IDR ([3]; listed as hemi-fumarate salt Form B): 6.2 μg/(min · cm^2)
- Solubility, Cumulative ([3]; sum of the 15-120 min time points): 5.119 µg/mL
- Cmax [4, 7]: 3080 ng/mL
- Tmax [4, 7]: 4.7 h
- Cmax ([4]; 3 male cynomolgus monkeys, plasma Compound 1, listed as fumarate salt of Compound 1, 30 mg/kg): about 3080 ng/mL
- AUClast higher than that of Compound 1 ([4]; male cynomolgus monkeys): over 50%
- Cmax higher than that of Compound 1 (free base) ([4]; male cynomolgus monkeys): over 98%
- AUC(0-t) ([4]; male, cynomolgus monkey, plasma, po, male cynomolgus monkeys): 38900 ng·h/mL
- Solid-state stability by HPLC or XRPD [5]: No significant changes
- exposure to Compound 1 as compared to subjects dosed with the free base [6]: superior exposure

Reference: patent US20250275966A1, “GABAA RECEPTOR MODULATOR SALTS, PARTICLES, AND USES THEREOF” (Engrail Therapeutics, Inc., priority 2022, published 2025)
